pIC50: −log10 of the molar value.
What follows are compounds tested against cAMP and cAMP-inhibited cGMP 3',5'-cyclic phosphodiesterase 10A (Homo sapiens, UniProt Q9Y233) (assay: PDE10A assay).
Procedure, shortened: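 Scintillation proximity readout of [3H]cGMP hydrolysis (50 nM final substrate, 15 min) by 2 ng/well human PDE10A after 15 min compound preincubation at RT, pH 7.5 with MgCl2. Four-parameter logistic fit gave IC50, reported as pIC50.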

pIC50 | SMILES
6.36 | Cc1cnc(C)n2nc(CCc3nc(NCCCCl)nn3C)nc12 [Roche-Dataset for PDE10A, Compound 725]
5.48 | Cc1ccc(C)c(C(=O)Nc2cc(-c3ccccn3)nn2C)n1 [Roche-Dataset for PDE10A, Compound 726]
7.23 | O=C(NCc1cnn(-c2ccccc2)n1)c1nc(C2CC2)cnc1Nc1cncnc1 [Roche-Dataset for PDE10A, Compound 727]
5.59 | O=C(NCCN1CCOCC1=O)c1nc(C2CC2)cnc1Nc1cncnc1 [Roche-Dataset for PDE10A, Compound 728]
7.17 | O=C(Nc1ccnc(C(=O)N2CCCCC2)c1)c1nc(C2CC2)cnc1Nc1cncnc1 [Roche-Dataset for PDE10A, Compound 730]
5.00 | Cc1cc(C(=O)Nc2cc3[nH]c(-c4ccccc4)nc3cc2C(F)(F)F)n(C)n1 [Roche-Dataset for PDE10A, Compound 731]
7.74 | O=C(Nc1ccc(N2CCCC2=O)cc1)c1nc(C2CC2)ccc1Nc1cncnc1 [Roche-Dataset for PDE10A, Compound 733]
8.07 | O=C(Nc1cccc(S(=O)(=O)CCO)c1)c1nc(C2CC2)cnc1Nc1cncnc1 [Roche-Dataset for PDE10A, Compound 734]
7.15 | CN1CCN(c2cccc(NC(=O)c3nc(C4CC4)cnc3Nc3cncnc3)c2)CC1 [Roche-Dataset for PDE10A, Compound 741]
5.79 | CCn1nc(NC(=O)c2c(C(=O)N3CCC3)cnn2C)cc1-c1cccc(Cl)c1 [Roche-Dataset for PDE10A, Compound 744]
5.18 | COc1nc2cc(NC(=O)c3c(C(=O)N4CCC4)cnn3C)ccn2n1 [Roche-Dataset for PDE10A, Compound 745]
5.46 | O=C(NCCS(=O)(=O)c1ccccc1)c1nc(C2CC2)cnc1Nc1cncnc1 [Roche-Dataset for PDE10A, Compound 746]
5.94 | CN(C)C(=O)c1cc(NC(=O)c2nc(C3CC3)ccc2Nc2cncnc2)[nH]n1 [Roche-Dataset for PDE10A, Compound 748]
6.15 | O=C(N[C@@H]1C[C@H]1c1ccccc1)c1nc(C2CC2)cnc1Nc1cncnc1 [Roche-Dataset for PDE10A, Compound 749]
5.35 | O=C(Nc1cc(-c2ccccc2)no1)c1ccc2cc(-c3ccccc3)nn2c1 [Roche-Dataset for PDE10A, Compound 752]
7.57 | Cc1c(Cl)cc(Cl)c2nc(CCc3cn4c(n3)SCC4)nn12 [Roche-Dataset for PDE10A, Compound 760]
5.84 | CCOC(=O)c1cnn(C)c1C(=O)Nc1ccn2nc(C(C)C)nc2c1 [Roche-Dataset for PDE10A, Compound 761]
6.94 | Cc1c(Cl)cc(C(F)(F)F)c2nc(/C=C/c3nc(Br)nn3C)nn12 [Roche-Dataset for PDE10A, Compound 764]
7.28 | CCOc1cc(NC(=O)c2nc(C3CC3)cnc2Nc2cncnc2)ccn1 [Roche-Dataset for PDE10A, Compound 765]
6.01 | CN(C)c1nc2cc(NC(=O)c3c(C(=O)O)cnn3C)ccn2n1 [Roche-Dataset for PDE10A, Compound 768]
8.20 | Cc1nc2ccc(Cl)cc2nc1OCc1nc(-c2ccccc2)cn1C [Roche-Dataset for PDE10A, Compound 769]
5.00 | Cc1ncn(C)c1C(=O)Nc1cc(-c2ccccn2)nn1C [Roche-Dataset for PDE10A, Compound 772]
5.55 | Cn1nc(-c2ccccn2)cc1NC(=O)c1c(I)cc[nH]c1=O [Roche-Dataset for PDE10A, Compound 774]
7.89 | CN(C)C(=O)Cc1csc(NC(=O)c2nc(C3CC3)cnc2Nc2cncnc2)n1 [Roche-Dataset for PDE10A, Compound 775]
5.78 | COc1ncc(C2CC2)nc1C(=O)Nc1cc(-c2ccccn2)nn1C [Roche-Dataset for PDE10A, Compound 776]
7.66 | O=C(Nc1cccc(N2CCS(=O)(=O)CC2)c1)c1nc(C2CC2)cnc1Nc1cncnc1 [Roche-Dataset for PDE10A, Compound 777]
5.00 | O=C(Nc1ccn2nc(-c3ccccc3)nc2c1)c1ccc(Cl)cn1 [Roche-Dataset for PDE10A, Compound 778]
5.68 | O=C(NCCN1CCCC1=O)c1nc(C2CC2)cnc1Nc1cncnc1 [Roche-Dataset for PDE10A, Compound 779]
7.11 | Clc1ccc2nc(CCc3nc4ccc(Cl)cn4n3)nn2c1 [Roche-Dataset for PDE10A, Compound 780]
8.47 | Cc1ncc(C)n2nc(/C=C/c3nc(N4CCC[C@@H]4C(F)(F)F)nn3C)nc12 [Roche-Dataset for PDE10A, Compound 782]

Continued, compound first:

SMILES | pIC50
Cn1ncc(C(=O)N2CCC2)c1C(=O)Nc1ccn(Cc2cn(-c3ccc(Cl)c(Cl)c3)cn2)n1 [Roche-Dataset for PDE10A, Compound 669] | 7.10
COc1cnc(C)n2nc(CCc3nc(N4CCCC4)nn3C)nc12 [Roche-Dataset for PDE10A, Compound 671] | 7.96
Cc1ncc(C(C)C)c2nc(CCc3nc(N4CCCC4)nn3C)nn12 [Roche-Dataset for PDE10A, Compound 672] | 8.15
CNC(=O)c1cn(C)c(CCc2nc3c(C)ncc(C)n3n2)n1 [Roche-Dataset for PDE10A, Compound 675] | 6.64
Cn1nc(C2CCCC2)cc1NC(=O)c1nc(C2CC2)ccc1Nc1cncnc1 [Roche-Dataset for PDE10A, Compound 677] | 6.36
Cc1cn2nc(CCc3nc(N4CCCC4)nn3C)nc2cn1 [Roche-Dataset for PDE10A, Compound 678] | 6.03
O=C(Nc1ccc2cc(-c3ccccc3)nn2c1)c1ccno1 [Roche-Dataset for PDE10A, Compound 679] | 5.63
O=C(NCc1cn(-c2ccccc2)cn1)c1nc(C2CC2)cnc1Nc1cncnc1 [Roche-Dataset for PDE10A, Compound 682] | 7.28
Cc1ccc(C(=O)Nc2ccn3nc(-c4ccccc4)nc3c2)cn1 [Roche-Dataset for PDE10A, Compound 684] | 5.33
O=C(Nc1ccc(N2CCOCC2=O)cc1)c1nc(C2CC2)ccc1Nc1cncnc1 [Roche-Dataset for PDE10A, Compound 686] | 7.37
Cc1nc2nc(CCc3nc(-c4ccccc4)cn3C)[nH]c(=O)c2n1C [Roche-Dataset for PDE10A, Compound 687] | 6.48
Cc1ncc(C)n2nc(/C=C/c3nc(N4CCC[C@H]4CF)nn3C)nc12 [Roche-Dataset for PDE10A, Compound 691] | 6.10
CC(C)n1ccc(NC(=O)c2nc(C3CC3)ccc2Nc2cncnc2)n1 [Roche-Dataset for PDE10A, Compound 692] | 7.32
CN(C)C(=O)Cc1cccc(NC(=O)c2nc(C3CC3)cnc2Nc2cncnc2)c1 [Roche-Dataset for PDE10A, Compound 693] | 7.01
O=C(Nc1cccc(OCC(F)(F)F)c1)c1nc(C2CC2)cnc1Nc1cncnc1 [Roche-Dataset for PDE10A, Compound 694] | 7.80
O=C(Nc1ccn(C2CCC2)n1)c1nc(C2CC2)ccc1Nc1cncnc1 [Roche-Dataset for PDE10A, Compound 695] | 7.68
O=C(Nc1ccn(CCF)n1)c1nc(C2CC2)ccc1Nc1cncnc1 [Roche-Dataset for PDE10A, Compound 698] | 8.01
O=C(NCc1ccc2nccnc2c1)c1nc(C2CC2)cnc1Nc1cncnc1 [Roche-Dataset for PDE10A, Compound 699] | 6.85

SMILES | pIC50
COc1c(C)cnc(CCc2ccc3ccccc3n2)c1C [Roche-Dataset for PDE10A, Compound 701] | 5.83
O=C(Nc1cccc(N2CCC(O)CC2)c1)c1nc(C2CC2)cnc1Nc1cncnc1 [Roche-Dataset for PDE10A, Compound 703] | 7.89
CNc1nc2cc(NC(=O)c3c(C(=O)N4CCC4)cnn3C)ccn2n1 [Roche-Dataset for PDE10A, Compound 704] | 8.11
Cc1ncc(O)c2nc(CCc3nc(N4CCCC4)nn3C)nn12 [Roche-Dataset for PDE10A, Compound 705] | 6.85
Cn1nc(-c2ccccn2)cc1NC(=O)c1cccn(C)c1=O [Roche-Dataset for PDE10A, Compound 710] | 5.36
Cn1nc(-c2ccccn2)cc1NC(=O)c1c(Nc2cncnc2)cc[nH]c1=O [Roche-Dataset for PDE10A, Compound 711] | 7.74
CNC(=O)c1cc2[nH]c(-c3ccccc3)nc2cc1NC(=O)c1cc(C)n(C(C)(C)C)n1 [Roche-Dataset for PDE10A, Compound 713] | 7.12
Cc1nccc2nc(CCc3nc(N4CCCC4)nn3C)nn12 [Roche-Dataset for PDE10A, Compound 714] | 7.08
O=C(Nc1ccn(C2CC2)n1)c1nc(C2CC2)ccc1Nc1cncnc1 [Roche-Dataset for PDE10A, Compound 715] | 7.59
Cn1cc(-c2ccccc2)nc1COc1cnc(Br)c(C(=O)Nc2cncnc2)n1 [Roche-Dataset for PDE10A, Compound 716] | 5.53
CCN(C)c1nc2cc(NC(=O)c3c(C(=O)O)cnn3C)ccn2n1 [Roche-Dataset for PDE10A, Compound 717] | 6.55
O=C(NCc1ccc2c(c1)CCO2)c1nc(C2CC2)cnc1Nc1cncnc1 [Roche-Dataset for PDE10A, Compound 718] | 6.83
Cn1ncc(C(=O)N2CCOCC2)c1C(=O)Nc1cn(-c2cccc(C(F)(F)F)n2)cn1 [Roche-Dataset for PDE10A, Compound 719] | 5.05
Cc1ncc(C)n2nc(/C=C/c3nc(C)n(-c4ccccc4)n3)nc12 [Roche-Dataset for PDE10A, Compound 720] | 6.75
CC(C)Oc1cccc(NC(=O)c2nc(C3CC3)cnc2Nc2cncnc2)c1 [Roche-Dataset for PDE10A, Compound 721] | 8.02
CSc1ncc(Br)c(C(=O)Nc2cc(-c3ccccn3)nn2C)n1 [Roche-Dataset for PDE10A, Compound 723] | 5.12
O=C(Nc1cccc(N2CCCCC2=O)c1)c1nc(C2CC2)cnc1Nc1cncnc1 [Roche-Dataset for PDE10A, Compound 724] | 7.34

— BindingDB's records for doi:10.1007/s10822-022-00478-x (Roche Innovation Center Basel, F. Hoffmann-La Roche Ltd., 2022)
